# pIC50: −log10 of the molar value.
# Target: T1, AKT1-E17K (Homo sapiens, UniProt P31749, E17K)
# T1 construct: host or cells: HEK-293 (ATCC CRL-1573)
# Assay: NanoBRET Target Engagement (TE) Assay
# Type: cell-based
# Outline: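 Live cells transiently expressing NanoLuc-AKT1 E17K fusion, incubated 2 h with tracer and compound before substrate plus extracellular NanoLuc inhibitor were added. BRET read at 450/600 nm; EC50 from variable-slope sigmoidal fit of tracer displacement.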
# T1 sequence (P31749 whole entry E17K): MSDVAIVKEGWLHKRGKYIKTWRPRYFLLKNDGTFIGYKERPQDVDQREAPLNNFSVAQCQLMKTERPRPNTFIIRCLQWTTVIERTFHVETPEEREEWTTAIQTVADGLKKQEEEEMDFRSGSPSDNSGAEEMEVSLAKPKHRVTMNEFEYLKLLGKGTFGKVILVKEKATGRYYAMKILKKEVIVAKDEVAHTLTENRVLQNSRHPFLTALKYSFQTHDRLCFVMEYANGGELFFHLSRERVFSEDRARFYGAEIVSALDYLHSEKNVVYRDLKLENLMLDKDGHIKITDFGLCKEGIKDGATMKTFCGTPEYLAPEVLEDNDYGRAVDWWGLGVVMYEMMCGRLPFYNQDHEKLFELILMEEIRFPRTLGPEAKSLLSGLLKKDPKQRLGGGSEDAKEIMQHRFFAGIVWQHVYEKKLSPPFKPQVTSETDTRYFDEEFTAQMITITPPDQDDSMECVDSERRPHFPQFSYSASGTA
row,Structure (SMILES),pIC50
1,"Nc1ncccc1-c1nc2ccc(-c3ccccc3)nc2n1-c1ccc(CN2C[C@@H]3CN(c4ccc(O)c(C=O)c4)C[C@@H]3C2)cc1 [Example 134, 5-((3aR,6aS)-5-(4-(2-(2-Aminopyridin-3-yl)-5-phenyl-3H-imidazo[4,5-b]pyridin-3-yl)benzyl)hexahydropyrrolo[3,4-c]pyrrol-2(1H)-yl)-2-hydroxybenzaldehyde]",6.22 to 7.22
2,"Nc1ncccc1-c1nc2ccc(-c3ccccc3)nc2n1-c1ccc(CN2C[C@H]3CN(C(=O)c4ccc(O)c(C=O)c4)C[C@@H]3C2)cc1 [Example 135, 5-((3aS,6aS)-5-(4-(2-(2-Aminopyridin-3-yl)-5-phenyl-3H-imidazo[4,5-b]pyridin-3-yl)benzyl)octahydropyrrolo[3,4-c]pyrrole-2-carbonyl)-2-hydroxybenzaldehyde]",7.22 to 7.82
3,"Nc1ncccc1-c1nc2ccc(-c3ccccc3)nc2n1-c1ccc(CN2C[C@H]3CN(C(=O)c4ccc(C=O)c(O)c4)C[C@@H]3C2)cc1 [Example 136, 4-((3aS,6aS)-5-(4-(2-(2-Aminopyridin-3-yl)-5-phenyl-3H-imidazo[4,5-b]pyridin-3-yl)benzyl)octahydropyrrolo[3,4-c]pyrrole-2-carbonyl)-2-hydroxybenzaldehyde]",6.22 to 7.22
4,"Nc1ncccc1-c1nc2ccc(-c3ccccc3)nc2n1-c1ccc(COc2cccc(O)c2C=O)cc1 [Example 137, 2-((4-(2-(2-Aminopyridin-3-yl)-5-phenyl-3H-imidazo[4,5-b]pyridin-3-yl)benzyl)oxy)-6-hydroxybenzaldehyde]",< 6.22
5,"Nc1ncccc1-c1nc2ccc(-c3ccccc3)nc2n1-c1ccc(COc2ccc(C=O)c(O)c2)cc1 [Example 138, 4-((4-(2-(2-Aminopyridin-3-yl)-5-phenyl-3H-imidazo[4,5-b]pyridin-3-yl)benzyl)oxy)-2-hydroxybenzaldehyde]",6.22 to 7.22
6,"Nc1ncccc1-c1nc2ccc(-c3ccccc3)nc2n1-c1ccc(COc2ccc(O)c(C=O)c2)cc1 [Example 139, 5-((4-(2-(2-Aminopyridin-3-yl)-5-phenyl-3H-imidazo[4,5-b]pyridin-3-yl)benzyl)oxy)-2-hydroxybenzaldehyde]",< 6.22
7,"C[C@H](NC(=O)c1ccc(O)c(C=O)c1)c1ccc(-n2c(-c3cccnc3N)nc3ccc(-c4ccccc4)nc32)cc1 [Example 140, (S)—N-(1-(4-(2-(2-Aminopyridin-3-yl)-5-phenyl-3H-imidazo[4,5-b]pyridin-3-yl)phenyl)ethyl)-3-formyl-4-hydroxybenzamide]",7.22 to 7.82
8,"Nc1ncccc1-c1nc2ccc(-c3ccccc3F)nc2n1-c1ccc(CN2CCN(C(=O)c3ccc(O)c(C=O)c3)CC2)cc1 [Example 141, 5-(4-(4-(2-(2-Aminopyridin-3-yl)-5-(2-fluorophenyl)-3H-imidazo[4,5-b]pyridin-3-yl)benzyl)piperazine-1-carbonyl)-2-hydroxybenzaldehyde]",7.22 to 7.82
9,"Nc1ncccc1-c1nc2ccc(-c3ccccc3F)nc2n1-c1ccc(CN2CCN(C(=O)c3ccc(C=O)c(O)c3)CC2)cc1 [Example 142, 4-(4-(4-(2-(2-Aminopyridin-3-yl)-5-(2-fluorophenyl)-3H-imidazo[4,5-b]pyridin-3-yl)benzyl)piperazine-1-carbonyl)-2-hydroxybenzaldehyde]",< 6.22
10,"Nc1ncccc1-c1nc2ccc(-c3ccc(F)cc3)nc2n1-c1ccc(CN2CCN(C(=O)c3ccc(O)c(C=O)c3)CC2)cc1 [Example 143, 5-(4-(4-(2-(2-Aminopyridin-3-yl)-5-(4-fluorophenyl)-3H-imidazo[4,5-b]pyridin-3-yl)benzyl)piperazine-1-carbonyl)-2-hydroxybenzaldehyde]",6.22 to 7.22

# Second part, the compound after the results:
row,pIC50,Structure (SMILES)
1,6.22 to 7.22,"Nc1ncccc1-c1nc2ccc(-c3ccc(F)cc3)nc2n1-c1ccc(CN2CCN(C(=O)c3ccc(C=O)c(O)c3)CC2)cc1 [Example 144, 4-(4-(4-(2-(2-Aminopyridin-3-yl)-5-(4-fluorophenyl)-3H-imidazo[4,5-b]pyridin-3-yl)benzyl)piperazine-1-carbonyl)-2-hydroxybenzaldehyde]"
2,6.22 to 7.22,"Nc1ncccc1-c1nc2ccc(-c3ccccc3Cl)nc2n1-c1ccc(CN2CCN(c3ccc(C=O)c(O)c3)CC2)cc1 [Example 145, 4-(4-(4-(2-(2-Aminopyridin-3-yl)-5-(2-chlorophenyl)-3H-imidazo[4,5-b]pyridin-3-yl)benzyl)piperazin-1-yl)-2-hydroxybenzaldehyde]"
3,< 6.22,"Nc1ncccc1-c1nc2ccc(-c3ccc(Cl)cc3)nc2n1-c1ccc(CN2CCN(c3ccc(C=O)c(O)c3)CC2)cc1 [Example 146, 4-(4-(4-(2-(2-aminopyridin-3-yl)-5-(4-chlorophenyl)-3H-imidazo[4,5-b]pyridin-3-yl)benzyl)piperazin-1-yl)-2-hydroxybenzaldehyde]"
4,< 6.22,"Nc1ncccc1-c1nc2ccc(-c3ccc(Cl)cc3)nc2n1-c1ccc(CN2CCN(C(=O)c3ccc(O)c(C=O)c3)CC2)cc1 [Example 147, 5-(4-(4-(2-(2-aminopyridin-3-yl)-5-(4-chlorophenyl)-3H-imidazo[4,5-b]pyridin-3-yl)benzyl)piperazine-1-carbonyl)-2-hydroxybenzaldehyde]"
5,< 6.22,"Nc1ncccc1-c1nc2ccc(-c3ccc(Cl)cc3)nc2n1-c1ccc(CN2CCN(C(=O)c3ccc(C=O)c(O)c3)CC2)cc1 [Example 148, 4-(4-(4-(2-(2-aminopyridin-3-yl)-5-(4-chlorophenyl)-3H-imidazo[4,5-b]pyridin-3-yl)benzyl)piperazine-1-carbonyl)-2-hydroxybenzaldehyde]"
6,< 6.22,"Nc1ncccc1-c1nc2ccc(-c3ccc(Cl)cc3)nc2n1-c1ccc(CN2CCN(c3ccc(O)c(C=O)c3)CC2)cc1 [Example 149, 5-(4-(4-(2-(2-aminopyridin-3-yl)-5-(4-chlorophenyl)-3H-imidazo[4,5-b]pyridin-3-yl)benzyl)piperazin-1-yl)-2-hydroxybenzaldehyde]"
7,6.22 to 7.22,"Nc1ncccc1-c1nc2ccc(C3=CCCCC3)nc2n1-c1ccc(CN2CCN(C(=O)c3ccc(O)c(C=O)c3)CC2)cc1 [Example 150, 5-(4-(4-(2-(2-aminopyridin-3-yl)-5-(cyclohex-1-en-1-yl)-3H-imidazo[4,5-b]pyridin-3-yl)benzyl)piperazine-1-carbonyl)-2-hydroxybenzaldehyde]"
8,< 6.22,"Nc1ncccc1-c1nc2ccc(C3=CCCCC3)nc2n1-c1ccc(CN2CCN(C(=O)c3ccc(C=O)c(O)c3)CC2)cc1 [Example 151, 4-(4-(4-(2-(2-aminopyridin-3-yl)-5-(cyclohex-1-en-1-yl)-3H-imidazo[4,5-b]pyridin-3-yl)benzyl)piperazine-1-carbonyl)-2-hydroxybenzaldehyde]"
9,6.22 to 7.22,"Nc1ncccc1-c1nc2ccc(-c3ccccc3)nc2n1-c1ccc(CN2CCC3(CC2)CCN(C(=O)c2ccc(C=O)c(O)c2)CC3)cc1 [Example 152, 4-(9-(4-(2-(2-aminopyridin-3-yl)-5-phenyl-3H-imidazo[4,5-b]pyridin-3-yl)benzyl)-3,9-diazaspiro[5.5]undecane-3-carbonyl)-2-hydroxybenzaldehyde]"
10,6.22 to 7.22,"Nc1ncccc1-c1nc2ccc(-c3ccccc3)nc2n1-c1ccc(CN2CCC3(C2)CN(C(=O)c2ccc(C=O)c(O)c2)C3)cc1 [Example 153, 4-(6-(4-(2-(2-aminopyridin-3-yl)-5-phenyl-3H-imidazo[4,5-b]pyridin-3-yl)benzyl)-2,6-diazaspiro[3.4]octane-2-carbonyl)-2-hydroxybenzaldehyde]"

# Reference: patent publication US20260365647A1, “AKT1 MODULATORS” (Alterome Therapeutics, Inc., priority 2022, published 2026)
